Results taken from patent US20080096807A1, “Cyclic vasoactive intestinal peptide receptor-2 agonists” (priority 2006, published 2008).
Bridge positions count the residues as written; N and C are the ends. Square brackets hold non-standard residues; d marks the D form. Peptide text beside a SMILES is read from it. ξ: configuration not given here. Thr(3ξ) = CC(O)[C@H](N)C(=O)O; Nle = CCCC[C@H](N)C(=O)O

What was measured:
VPAC2 receptor = target: T1, VPAC2 receptor (Homo sapiens, UniProt P41587); assay: Sup-T1 cAMP agonist assay; format: cell-based; conditions: human T-lymphoid cell line Sup-T1 expressing VPAC2 receptor; cAMP EIA; 5 min at room temperature; read-out: Sup-T1 cAMP EC50
T1 construct: The human T-lymphoid cell line Sup-Ti, which expresses the VPAC2 receptor; host or cells: Sup-T1 (Sup-Ti [sic]) human T-lymphoid cell line
T1 sequence (P41587 24-438): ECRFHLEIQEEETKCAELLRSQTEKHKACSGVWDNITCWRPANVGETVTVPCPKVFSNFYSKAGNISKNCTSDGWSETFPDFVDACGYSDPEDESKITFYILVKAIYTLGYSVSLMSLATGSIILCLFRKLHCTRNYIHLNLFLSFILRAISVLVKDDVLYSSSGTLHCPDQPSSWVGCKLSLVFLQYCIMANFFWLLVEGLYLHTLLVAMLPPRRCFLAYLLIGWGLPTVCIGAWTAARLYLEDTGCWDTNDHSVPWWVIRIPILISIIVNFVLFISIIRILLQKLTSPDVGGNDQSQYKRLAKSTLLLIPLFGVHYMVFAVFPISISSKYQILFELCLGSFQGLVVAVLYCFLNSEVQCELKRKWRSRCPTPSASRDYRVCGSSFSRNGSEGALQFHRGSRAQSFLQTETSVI
Experimental: The human T-lymphoid cell line Sup-Ti, which expresses the VPAC2 receptor, was obtained from the American Type Culture Collection (ATCC, CRL-1942) and maintained in growth medium at densities between 0.2 and 2×10^6 cells/ml in a 37° C. CO2 incubator. The growth medium was RPMI 1640 (Invitrogen) supplemented with 25 mM HEPES buffer and 10% fetal bovine serum (Gemini Bioproducts).
To evaluate VPAC2 agonist compound activity, cells in log-phase growth were washed once with growth medium at room temperature and plated into 96-well plates at a density of 4×10^4 cells per well in 150 uL of growth medium. Fifty uL of the compounds to be tested, prepared at appropriate concentrations in growth medium, were then added to designated wells. After 5 min at room temperature, the cells were lysed by adding 25 uL of lysis reagent 1A (cAMP Biotrak EIA system, Amersham Biosciences, RPN225) to each well. The 96-well plates were kept at room temperature for 10 min with shaking and then stored at 4° C. until analysis for cAMP (within 2 hr).
Cyclic AMP levels were determined in 100 uL of each lysate using the cAMP Biotrak Enzymeimmunoassay (EIA) kit according to the manufacture's instructions (Amersham Biosciences, RPN225). The activity of each VPAC2 agonist compound (EC50 value) was estimated by fitting the 7-concentration dose response data to a sigmoidal dose-response equation provided by the GraphPad Prism program (GraphPad Software, Inc.).

[1] = test system: LPS-induced lung inflammation in male C57BL/6 mice; assay: LPS-induced lung inflammation in male C57BL/6 mice (BAL neutrophilia); format: in vivo; conditions: BAL fluid neutrophilia
Experimental: C57bl/6 mice are pretreated with vehicle or drug prior to an aerosol expose to lipopolysacchride (LPS, 500 μg/ml in sterile saline) for 15-30 minutes. The aerosol is generated by a Pari Ultra neb jet nebulizer, the outlet of which is connected to a small clear plastic chamber [H×W×D, 10.7×25.7×11 cm (4×10×4.5 in)] containing the animals. Bronchoalveolar lavage (BAL) is performed 24 hr later to determine the intensity of cell inflammation. BAL procedure is performed as described below.
Mice are pretreated with vehicle or drug prior to an intranasal administration of lipopolysacchride (0.05-0.3 mg/kg in sterile saline; 50 μl total volume, 25 μl/nostril). Intranasal administration is performed by presenting small droplets of the dosing solution at the nostril using a 25-50 μl eppendorff pipet. BAL is performed 3 to 24 h post LPS challenged as described above to determine the intensity of cell inflammation.
24 h following LPS exposure, animals are anesthetized with pentobarbital (80-100 mg/kg, i.p.), ketamine/xyzaline (80-120 mg/kg/2-4 mg/kg, i.p.) or urethane (1.5-2.4 g/kg, i.p.); and through a small midline neck incision (15-20 mm), the trachea is exposed and cannulated with 20-gauge tubing adapter. Lungs are lavaged with 2×1 ml sterile Hank's balanced salt solution without Ca++ and Mg++(HBSS). Lavage fluid is recovered after 30 sec by gentle aspiration and pooled for each animal. Samples are then centrifuged at 2000 rpm for 10 minutes at 5° C. Supernatant is aspirated, and red blood cells are lysed from the resulting pellet with 0.5 ml distilled water for 30 sec before restoring osmolarity to the remaining cells by the addition of 5 ml of HBSS. Samples are recentrifuged at 2000 rpm for 10 minutes at 5° C. and supernatant aspirated. The resulting pellet is resuspended in 1 ml of HBSS. Total cell number is determined by Trypan Blue (Sigma Chemical, St. Louis, Mo.) exclusion from an aliquot of cell suspension using a hemocytometer or coulter counter. For differential cell counts, an aliquot of the cell suspension is centrifuged in a Cytospin (5 min, 1300 rpm; Shandon Southern Instruments, Sewickley, Pa.) and the slides fixed and stained with a modified Wright's stain (Hema 3 stain kit, Fisher Scientific). Standard morphological criteria is used in classifying at least 300 cells under light microscopy. Data in Table 3 is expressed as BAL cells×10^4/animal for neutrophils and total cells, or percent inhibition of the LPS induced BAL fluid neutrophilia response.

[2] = target: T2, human neutrophil elastase (Homo sapiens, UniProt P08246); assay: Peptide stability to neutrophil elastase (RP HPLC ESI MS); conditions: halftime with human neutrophil elastase 1 to 2 μg/mL in PBS, ambient temperature, normalized to halftime of the reference standard
T2 sequence (P08246 30-247 limits assumed): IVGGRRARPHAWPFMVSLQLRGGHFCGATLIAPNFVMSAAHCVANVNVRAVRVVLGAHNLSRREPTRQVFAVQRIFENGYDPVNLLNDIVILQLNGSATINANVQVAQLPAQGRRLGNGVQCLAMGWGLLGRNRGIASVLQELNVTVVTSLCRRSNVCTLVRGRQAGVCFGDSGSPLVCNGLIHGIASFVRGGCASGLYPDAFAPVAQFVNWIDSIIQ
Experimental: The proteolytic stabilities of peptide analogs were established with reversed phase high pressure liquid chromatography (RP HPLC) electrospray ionization mass spectrometry (ESI MS). Peptide analogs were incubated with human neutrophile elastase and the quantity of undigested analogs was determined by ESI MS at appropriate time points. Multiple peptide analogs could be included in one experiment as long as they could be differentiated by HPLC retention time and/or by molecular weight. Ac-His Ac-[sequence]Nle-[sequence]NH2 was used in all experiments as a control and as a reference standard. The simultaneous use of multiple peptide analogs together with a reference standard allowed for compensation for variations in the proteolytic fidelity of the enzyme over the multiple experiments. Integrated ion currents obtained for the individual undigested peptide were used for quantitation. For calculation of halftime first-order kinetic behavior was assumed and all calculations were normalized to the halftime of the reference standard.
Peptide stock solutions were prepared in water to a concentration of 2.5 mg/mL. Unless in use, all stock solutions were kept at −20° C. […] Concentrations of the peptide analogs were adjusted accordingly. In order to do the proteolytic digestion, peptides were dissolved in phosphate buffered saline (PBS) to a concentration of 0.1 mg/mL. As many as six different peptide analogs were mixed into one 50 μL reaction volume. The reference standard was added to all experiments as a reference and internal standard. Elastase (Human Neutrophil, Calbiochem, Cat # 324681) was added from an elastase stock solution to a concentration of 1 to 2 μg/mL. Different amounts of the enzyme were chosen to compensate for the differences in the proteolytic stabilities of the peptide analogs. Previously, a stock solution of elastase was prepared in water at a concentration of 1 mg/mL. Small aliquots of the enzyme stock solution were kept at −20° C. to better maintain the enzyme activity by limiting the number of thaw and freeze cycles.
The digestion was done at ambient temperature in an autosampler tube within the autosampler of the HPLC system (Agilent 1100 Series). For a time course, 5 μL aliquots were injected in 70 minute intervals onto the reversed phase HPLC column (Phenomenex, Luna C18, 3μ, 100 ↑, 150×2.00 mm). For the starting time point an aliquot was injected just prior to the addition of the proteolytic enzyme. A total of eight time points could be recorded from one experiment, including the starting point. Peptides were separated on the reversed phase column with a 50 minute gradient of 5% to 30% organic phase. The aqueous phase was 0.05% (v/v) of trifluoroacetic acid in water and the organic one was 0.045% (v/v) of trifluoroacetic acid in acetonitrile. Absorbances were recorded at 214 and 280 nm respectively. All of the column effluent was introduced into the turbo V source of the electrospray ionization mass spectrometer (ABI 4000 QTrap LC/MS/MS System). Mass spectra were acquired in Q3MS mode in a mass range to include all triply charged ions of the non degraded peptide analogs. Care was taken to assure that peptide analogs could clearly be differentiated either by the chromatographic retention time or by the difference in molecular weight. Relative quantities of the respective undigested peptide analog were calculated from the integrated total ion current. A window of 2.5 Da was chosen and the manufacturer's software was used to integrate the individual ion currents. The overall halftime of an individual peptide analog was calculated by assuming first-order kinetic behavior and was normalized with respect to the halftime of the reference standard.

Row | EC50 (VPAC2 receptor) | Relative elastase stability [2] | Structure (SMILES) | Inhibition of LPS-induced neutrophilia ([1]; Dose 0.1%) | Inhibition of LPS-induced neutrophilia ([1]; Dose 0.01%)
1 | 0.0697 µM | 5.2 | CCCC[C@H](NC(=O)[C@H](CCC(N)=O)NC(=O)[C@H](CCCCN)NC(=O)[C@H](CCCNC(=N)N)NC(=O)[C@H](CC(C)C)NC(=O)[C@H](CCCCN)NC(=O)[C@@H](NC(=O)[C@H](Cc1ccc(O)cc1)NC(=O)[C@H](CC(N)=O)NC(=O)[C@H](CCC(=O)O)NC(=O)[C@@H](NC(=O)[C@H](Cc1ccccc1)NC(=O)[C@H](CO)NC(=O)[C@H](C)NC(=O)[C@H](CC(=O)O)NC(=O)[C@H](CO)NC(=O)[C@H](Cc1c[nH]cn1)NC(C)=O)C(C)O)C(C)O)C(=O)N[C@@H](C)C(=O)N[C@@H](C)C(=O)N[C@@H](CCCCN)C(=O)N[C@H]1CCCCNC(=O)C[C@@H](C(=O)N[C@@H](CC(C)C)C(=O)N[C@@H](CCCCN)C(=O)N[C@@H](CCCCN)C(=O)NCC(=O)NCC(=O)N[C@H](C(N)=O)C(C)O)NC(=O)[C@H](CC(N)=O)NC(=O)[C@H](CC(C)C)NC(=O)[C@H](Cc2ccc(O)cc2)NC1=O (stereo partly drawn) [Example 2] (Ac-HSDASF[Thr(3ξ)]ENY[Thr(3ξ)]KLRKQ[Nle]AAKKYLNDLKKGG[Thr(3ξ)]-NH2; lactam 21-25) | + (+ 10-30%) | 
2 | 0.0114 µM | 3.5 | CCCC[C@H](NC(=O)[C@H](CCC(N)=O)NC(=O)[C@H](CCCCN)NC(=O)[C@H](CCCNC(=N)N)NC(=O)[C@H](CC(C)C)NC(=O)[C@H](CCCCN)NC(=O)[C@@H](NC(=O)[C@H](Cc1ccc(O)cc1)NC(=O)[C@H](CC(N)=O)NC(=O)[C@H](CCC(=O)O)NC(=O)[C@@H](NC(=O)[C@H](Cc1ccccc1)NC(=O)[C@H](CO)NC(=O)[C@H](C)NC(=O)[C@H](CC(=O)O)NC(=O)[C@H](CO)NC(=O)[C@H](Cc1c[nH]cn1)NC(C)=O)C(C)O)C(C)O)C(=O)N[C@@H](C)C(=O)N[C@@H](C)C(=O)N[C@@H](CCCCN)C(=O)N[C@H]1CCCCNC(=O)C[C@@H](C(=O)N[C@@H](CC(C)C)C(=O)N[C@@H](CC(C)C)C(=O)N[C@@H](CCCCN)C(=O)NCC(=O)NCC(=O)N[C@H](C(N)=O)C(C)O)NC(=O)[C@H](CC(N)=O)NC(=O)[C@H](CC(C)C)NC(=O)[C@H](Cc2ccc(O)cc2)NC1=O (stereo partly drawn) [Example 8] (Ac-HSDASF[Thr(3ξ)]ENY[Thr(3ξ)]KLRKQ[Nle]AAKKYLNDLLKGG[Thr(3ξ)]-NH2; lactam 21-25) | ++ (++ >30%) | 
3 | 1.2 µM | 12.0 | CCCC[C@H](NC(=O)[C@H](CCC(N)=O)NC(=O)[C@H](CCCCN)NC(=O)[C@H](CCCNC(=N)N)NC(=O)[C@H](CC(C)C)NC(=O)[C@H](CCCCN)NC(=O)[C@@H](NC(=O)[C@H](Cc1ccc(O)cc1)NC(=O)[C@H](CC(N)=O)NC(=O)[C@H](CCC(=O)O)NC(=O)[C@@H](NC(=O)[C@H](Cc1ccccc1)NC(=O)[C@H](CO)NC(=O)[C@H](C)NC(=O)[C@H](CC(=O)O)NC(=O)[C@H](CO)NC(=O)[C@H](Cc1c[nH]cn1)NC(C)=O)C(C)O)C(C)O)C(=O)N[C@@H](CCCCN)C(=O)N[C@@H](C)C(=O)N[C@@H](CCCCN)C(=O)N[C@H]1CCCCNC(=O)C[C@@H](C(=O)N[C@@H](CC(C)C)C(=O)N[C@@H](CCCCN)C(=O)N[C@@H](CCCCN)C(=O)NCC(=O)NCC(=O)N[C@H](C(N)=O)C(C)O)NC(=O)[C@H](CC(N)=O)NC(=O)[C@H](CC(C)C)NC(=O)[C@H](Cc2ccc(O)cc2)NC1=O (stereo partly drawn) [Example 9] (Ac-HSDASF[Thr(3ξ)]ENY[Thr(3ξ)]KLRKQ[Nle]KAKKYLNDLKKGG[Thr(3ξ)]-NH2; lactam 21-25) |  | + (+ 10-30%)
4 | 0.447 µM | 7.4 | CCCC[C@H](NC(=O)[C@H](C)NC(=O)[C@H](CCCCN)NC(=O)[C@H](CCCNC(=N)N)NC(=O)[C@H](CC(C)C)NC(=O)[C@H](CCCCN)NC(=O)[C@@H](NC(=O)[C@H](Cc1ccc(O)cc1)NC(=O)[C@H](CC(N)=O)NC(=O)[C@H](CCC(=O)O)NC(=O)[C@@H](NC(=O)[C@H](Cc1ccccc1)NC(=O)[C@H](CO)NC(=O)[C@H](C)NC(=O)[C@H](CC(=O)O)NC(=O)[C@H](CO)NC(=O)[C@H](Cc1c[nH]cn1)NC(C)=O)C(C)O)C(C)O)C(=O)N[C@@H](CCC(=O)O)C(=O)N[C@@H](C)C(=O)N[C@@H](CCCCN)C(=O)N[C@H]1CCCCNC(=O)C[C@@H](C(=O)N[C@@H](CC(C)C)C(=O)N[C@@H](CCCCN)C(=O)N[C@@H](CCCCN)C(=O)NCC(=O)NCC(=O)N[C@H](C(N)=O)C(C)O)NC(=O)[C@H](CC(N)=O)NC(=O)[C@H](CC(C)C)NC(=O)[C@H](Cc2ccc(O)cc2)NC1=O (stereo partly drawn) [Example 10] (Ac-HSDASF[Thr(3ξ)]ENY[Thr(3ξ)]KLRKA[Nle]EAKKYLNDLKKGG[Thr(3ξ)]-NH2; lactam 21-25) |  | ++ (++ >30%)
5 | 0.038 µM | 3.9 | CCCC[C@H](NC(=O)[C@H](CCC(N)=O)NC(=O)[C@H](CCCCN)NC(=O)[C@H](CCCNC(=N)N)NC(=O)[C@H](CC(C)C)NC(=O)[C@H](CCCCN)NC(=O)[C@@H](NC(=O)[C@H](Cc1ccc(O)cc1)NC(=O)[C@H](CC(N)=O)NC(=O)[C@H](CCC(=O)O)NC(=O)[C@@H](NC(=O)[C@H](Cc1ccccc1)NC(=O)[C@@H](NC(=O)[C@H](C)NC(=O)[C@H](CC(=O)O)NC(=O)[C@H](CO)NC(=O)[C@H](Cc1c[nH]cn1)NC(C)=O)C(C)O)C(C)O)C(C)O)C(=O)N[C@@H](C)C(=O)N[C@@H](C)C(=O)N[C@@H](CCCCN)C(=O)N[C@H]1CCCCNC(=O)C[C@@H](C(=O)N[C@@H](CC(C)C)C(=O)N[C@@H](CCCCN)C(=O)N[C@@H](CCCCN)C(=O)NCC(=O)NCC(=O)N[C@H](C(N)=O)C(C)O)NC(=O)[C@H](CC(N)=O)NC(=O)[C@H](CC(C)C)NC(=O)[C@H](Cc2ccc(O)cc2)NC1=O (stereo partly drawn) [Example 1] (Ac-HSDA[Thr(3ξ)]F[Thr(3ξ)]ENY[Thr(3ξ)]KLRKQ[Nle]AAKKYLNDLKKGG[Thr(3ξ)]-NH2; lactam 21-25) | + (+ 10-30%) | 
